# In US9982005B2, “Macrolides and methods of their preparation and use” (President and Fellows of Harvard College, priority 2013, dated 2018):
# Like-named read-outs stand apart in the source and are kept apart here.
# Columns and labels:
# [1] = system: panels of Gram-positive bacteria; conditions: fluorine atom at position C2; cited from earlier work
# [2] = system: SA101 S. aureus ATCC29213; test: broth dilution MIC, S. aureus SA101; assay type: cell-based; conditions: Staphylococcus aureus, ATCC29213, SA101 S. aureus ATCC29213; read-out: MIC
# Summary of the method: (§1)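 MICs were determined by broth dilution following CLSI standard procedures. Azithromycin served as the control macrolide.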
# [3] = system: SA506 S. aureus ermA positive msrA unknown; test: broth dilution MIC, S. aureus SA506; assay type: cell-based; conditions: Staphylococcus aureus
# Summary of the method: as §1
# E. coli (MC4100) = test: MIC, E. coli MC4100; assay type: cell-based; conditions: Escherichia coli, round 2, read-out: MIC
# Summary of the method: as §1
# [4] = system: SA1708 S. aureus ermA positive msrA negative; test: broth dilution MIC, S. aureus SA1708; assay type: cell-based; conditions: Staphylococcus aureus
# Summary of the method: as §1
# [5] = system: BS1723 B. subtilis BS168 WT wild type; test: broth dilution MIC, B. subtilis BS1723; assay type: cell-based; conditions: Bacillus subtilis, BS1723 B. subtilis BS168 WT wild type; read-out: MIC
# Summary of the method: as §1
# E. faecalis strains = test: MIC against E. faecalis strains (Table M8); assay type: cell-based; conditions: for MIC: Enterococcus faecalis, E. faecalis 29212
# [6] = system: S. aureus (Newman, clinical isolate); test: MIC, S. aureus Newman; assay type: cell-based; conditions: Staphylococcus aureus, S. aureus (Neuman, clinical isolate), round 2
# Summary of the method: as §1
# [7] = system: Spn160 S. pneumoniae ermB unknown mefA positive; test: broth dilution MIC, S. pneumoniae Spn160; assay type: cell-based; conditions: Streptococcus pneumoniae; Spn160 S. pneumoniae ermB unknown mefA positive; read-out: MIC
# Summary of the method: as §1
# S. pneumoniae strains = test: MIC against S. pneumoniae strains (Tables M7, M8); assay type: cell-based; conditions: Streptococcus pneumoniae
# From the text: CLSI standard procedures for broth dilution MIC determination were used. […] These genotypes can be constitutive or inducible.
# EC878 E. coli tolC = test: broth dilution MIC, E. coli EC878; assay type: cell-based; conditions: Escherichia coli
# Summary of the method: as §1
# [8] = system: Spn1427 S. pneumoniae ermB positive mefA negative; test: broth dilution MIC, S. pneumoniae Spn1427; assay type: cell-based; conditions: Streptococcus pneumoniae
# Summary of the method: as §1
# H. influenzae strains = test: MIC against H. influenzae strains (Table M8); assay type: cell-based; conditions: Haemophilus influenzae
# Summary of the method: as §1
# [9] = system: SA1707 S. aureus ermA negative msrA positive; test: broth dilution MIC, S. aureus SA1707; assay type: cell-based; conditions: Staphylococcus aureus
# Summary of the method: as §1
# [10] = system: HI175 H. influenzae ATCC49247; test: broth dilution MIC, H. influenzae HI175; assay type: cell-based; conditions: Haemophilus influenzae
# Summary of the method: as §1
# S. aureus strains = test: MIC against S. aureus strains (Table M7); assay type: cell-based; conditions: for MIC: Staphylococcus aureus
# Summary of the method: as §1
# [11] = system: SA557 S. aureus ermA unknown msrA positive; test: broth dilution MIC, S. aureus SA557; assay type: cell-based; conditions: Staphylococcus aureus; SA557 S. aureus ermA unknown msrA positive; read-out: MIC
# Summary of the method: as §1
# [12] = system: Spn 106 S. pneumonia ATCC49619; test: broth dilution MIC, S. pneumoniae Spn 106; assay type: cell-based; conditions: Streptococcus pneumoniae
# Summary of the method: as §1
# E. coli strains = test: MIC against E. coli strains (Table M7); assay type: cell-based; conditions: Escherichia coli, ATCC25922, E. coli ATCC 25922
# Summary of the method: as §1
# EC107 E. coli ATCC25922 = test: broth dilution MIC, E. coli EC107; assay type: cell-based; conditions: Escherichia coli, read-out: MIC
# Summary of the method: as §1
# [13] = system: SA183 S. aureus ermA positive msrA unknown; test: broth dilution MIC, S. aureus SA183; assay type: cell-based; conditions: Staphylococcus aureus
# Summary of the method: as §1
# [14] = system: Spn1537 S. pneumoniae ermB positive mefA positive; test: broth dilution MIC, S. pneumoniae Spn1537; assay type: cell-based; conditions: Streptococcus pneumoniae
# Summary of the method: as §1
# EC882 E. coli imp = test: broth dilution MIC, E. coli EC882; assay type: cell-based; conditions: Escherichia coli
# Summary of the method: as §1
# K. pneumoniae strains = test: MIC against K. pneumoniae strains (Table M8); assay type: cell-based; conditions: Klebsiella pneumoniae, K. pneumoniae 10031
# HI281 H. influenzae = test: broth dilution MIC, H. influenzae HI281; assay type: cell-based; conditions: Haemophilus influenzae
# Summary of the method: as §1
# [15] = system: Spn1533 S. pneumoniae ermB positive mefA positive; test: broth dilution MIC, S. pneumoniae Spn1533; assay type: cell-based; conditions: Streptococcus pneumoniae
# Summary of the method: as §1
# [16] = system: Spn1509 S. pneumoniae ermB positive mefA negative; test: broth dilution MIC, S. pneumoniae Spn1509; assay type: cell-based; conditions: Streptococcus pneumoniae
# Summary of the method: as §1
# BS1725 B. subtilis ermC = test: broth dilution MIC, B. subtilis BS1725; assay type: cell-based; conditions: Bacillus subtilis
# Summary of the method: as §1
# [17] = system: SA418 S. aureus ermA negative msrA positive; test: broth dilution MIC, S. aureus SA418; assay type: cell-based; conditions: Staphylococcus aureus
# Summary of the method: as §1
# [18] = ester bond
# A. baumannii strains = test: MIC against A. baumannii strains (Table M8); assay type: cell-based; conditions: Acinetobacter baumannii, BAA747, A. baumannii BAA747-1
# [19] = S. pneumoniae 160, read-out: MIC S. pneumonae (160)
# [20] = S. pneumoniae 1509, read-out: MIC S. pneumoniae (1509)
# [21] = S. pneumoniae 1533, read-out: MIC S. pneumoniae (1533)
# [22] = S. pneumoniae 1537, read-out: MIC S. pneumoniae (1537)
# [23] = H. influenzae 49247, read-out: MIC H. influenzae (49247)
# [24] = H. influenzae 49766, read-out: MIC H. influenzae (49766)
# [25] = ATCC29213, S. aureus ATCC 29213, read-out: MIC S. aureus (ATCC 29213)
# [26] = S. aureus 506, read-out: MIC S. aureus (506)
# [27] = S. aureus 1708, read-out: MIC S. aureus (1708)
# [28] = USA300, S. aureus USA300, read-out: MIC S. aureus (USA300)
Compound,MIC [2] [µg/mL],MIC [3] [µg/mL],MIC [4] [µg/mL],MIC [5] [µg/mL],MIC (E. faecalis strains) [µg/mL],MIC [7] [µg/mL],MIC (S. pneumoniae strains; [19]) [µg/mL],MIC (S. pneumoniae strains; [20]) [µg/mL],MIC (S. pneumoniae strains; [21]) [µg/mL],MIC (S. pneumoniae strains; [22]) [µg/mL],MIC (EC878 E. coli tolC) [µg/mL],MIC [8] [µg/mL],MIC (H. influenzae strains; [23]) [µg/mL],MIC (H. influenzae strains; [24]) [µg/mL],MIC [9] [µg/mL],MIC [10] [µg/mL],MIC (S. aureus strains; [25]) [µg/mL],MIC (S. aureus strains; [26]) [µg/mL],MIC (S. aureus strains; [27]) [µg/mL],MIC (S. aureus strains; [28]) [µg/mL],other results
CC[C@H]1OC(=O)[C@@](C)(F)C(=O)[C@H](C)[C@@H](O[C@@H]2O[C@H](C)C[C@H](N(C)C)[C@H]2O)[C@](C)(OC)C[C@@H](C)C(=O)[C@H](C)[C@H]2N(CCCCn3cc(-c4cccc(N)c4)nn3)C(=O)O[C@]12C [solithromycin],,,,,,,,,,,,,,,,,,,,,increase in activity versus the non-fluorinated molecule [1]: 4- to 16 fold
"CC[C@H]1OC(=O)[C@H](C)[C@@H](O[C@H]2C[C@@](C)(OC)[C@@H](O)[C@H](C)O2)[C@H](C)[C@@H](O[C@@H]2O[C@H](C)C[C@H](N(C)C)[C@H]2O)[C@](C)(O)C[C@@H](C)CN(C)[C@H](C)[C@@H](O)[C@]1(C)O [Azithromycin, reference compound]",1 to 2,> 32,> 32,0.5,8,2,2,> 32,> 32,> 32,0.5,> 32,0.25,2,> 32,2,2,> 32,> 32,> 32,"MIC (E. coli (MC4100)): 8 µg/mL; MIC E. faecalis (29212) (E. faecalis strains): 16 µg/mL; MIC [6]: 1 µg/mL; MIC S. aureus (ATCC 29213) (S. aureus strains; S. aureus ATCC 29213): 1 µg/mL; MIC (S. aureus strains; S. aureus 183, read-out: MIC S. aureus (183)): > 32 µg/mL; MIC [11]: > 32 µg/mL; MIC ([12]; ATCC49619): 0.0625 µg/mL; MIC (E. coli strains): 8 µg/mL; MIC (EC107 E. coli ATCC25922): 4 µg/mL; MIC [13]: > 32 µg/mL; MIC [14]: > 32 µg/mL; MIC (EC882 E. coli imp): 0.0625 µg/mL; MIC (K. pneumoniae strains): 2 µg/mL; MIC (HI281 H. influenzae): 4 µg/mL; MIC [15]: > 32 µg/mL; MIC [16]: > 32 µg/mL; MIC (BS1725 B. subtilis ermC; BS1725 B. subtilis ermC (+ery)): > 32 µg/mL; MIC (BS1725 B. subtilis ermC; BS1725 B. subtilis ermC (−ery)): > 32 µg/mL; MIC [17]: > 32 µg/mL"
CC[C@H]1OC(=O)[C@H](C)C(=O)[C@H](C)[C@@H](O[C@@H]2OC(C)CC(N(C)C)C2OC(=O)OC)[C@](C)(OC)C[C@@H](C)CN[C@H](C)[C@H]2N(CCCCN=[N+]=[N-])C(=O)O[C@]12C (some centres unmarked),,,,,,,,,,,,,,,,,,,,,"ring closure, yield of all isomers ([18]; from CC[C@@H](O)[C@@]1(C)OC(=O)N(CCCCN=[N+]=[N-])[C@@H]1[C@@H](C)NC[C@H](C)C[C@@](C)(OC)[C@H](O[C@@H]1OC(C)CC(N(C)C)C1OC(=O)OC)[C@@H](C)C1=C(C)C(=O)OC(C)(C)O1, toluene, 3.97 mM, 111.0 °C, 40.0 h): 92%"
CC[C@H]1OC(=O)C(C)(F)C(=O)[C@@H](C)[C@@H](O[C@@H]2OC(C)CC(N(C)C)C2O)[C@](C)(OC)C[C@@H](C)CN[C@H](C)[C@H]2N(CCCCn3cc(-c4cccc(N)c4)nn3)C(=O)O[C@]12C (some centres unmarked) [FSM-20720],4 to 8,> 32,16,4,2,0.5,0.5,8,> 32,> 32,1,8,8,32,16,4,4,> 32,8,8,"MIC (A. baumannii strains): > 32 µg/mL; MIC (S. pneumoniae strains; S. pneumoniae 49619, read-out: MIC S. pneumoniae (49619)): 1 µg/mL; MIC [11]: 8 µg/mL; MIC ([12]; Spn 106 S. pneumonia ATCC49619, read-out: MIC): 0.125 µg/mL; MIC (E. coli strains): > 32 µg/mL; MIC (EC107 E. coli ATCC25922): > 32 µg/mL; MIC [13]: > 32 µg/mL; MIC [14]: > 32 µg/mL; MIC (EC882 E. coli imp): 1 µg/mL; MIC (K. pneumoniae strains): 8 µg/mL; MIC (HI281 H. influenzae): 32 µg/mL; MIC [15]: > 32 µg/mL; MIC ([16]; Spn1509 S. pneumoniae ermB positive mefA negative, read-out: MIC): 2 µg/mL; MIC (BS1725 B. subtilis ermC; BS1725 B. subtilis ermC (+ery)): > 32 µg/mL; MIC [17]: 8 µg/mL"
CC[C@H]1OC(=O)CC(=O)[C@H](C)[C@@H](O[C@@H]2OC(C)CC(N(C)C)C2OC(=O)OC)[C@](C)(OC)C[C@@H](C)CN[C@H](C)[C@H]2N(CCCCN=[N+]=[N-])C(=O)O[C@]12C (some centres unmarked),,,,,,,,,,,,,,,,,,,,,"ring closure, yield of all isomers ([18]; from CC[C@@H](O)[C@@]1(C)OC(=O)N(CCCCN=[N+]=[N-])[C@@H]1[C@@H](C)NC[C@H](C)C[C@@](C)(OC)[C@H](O[C@@H]1OC(C)CC(N(C)C)C1OC(=O)OC)[C@@H](C)C(=O)CC(=O)OC(C)(C)C, benzene, 9.08 mM, 80.0 °C, 12.0 h): 84%"
